One series addresses T1, ScBor1p (Saccharomyces cerevisiae, UniProt P53838).
T1 construct: gene BOR1; full length, C-terminal deca-histidine tag, pRS423-derived plasmid, GAL1 promoter, expressed in S. cerevisiae BTSY2 (bor1 deletion)
T1 sequence (P53838 1-576): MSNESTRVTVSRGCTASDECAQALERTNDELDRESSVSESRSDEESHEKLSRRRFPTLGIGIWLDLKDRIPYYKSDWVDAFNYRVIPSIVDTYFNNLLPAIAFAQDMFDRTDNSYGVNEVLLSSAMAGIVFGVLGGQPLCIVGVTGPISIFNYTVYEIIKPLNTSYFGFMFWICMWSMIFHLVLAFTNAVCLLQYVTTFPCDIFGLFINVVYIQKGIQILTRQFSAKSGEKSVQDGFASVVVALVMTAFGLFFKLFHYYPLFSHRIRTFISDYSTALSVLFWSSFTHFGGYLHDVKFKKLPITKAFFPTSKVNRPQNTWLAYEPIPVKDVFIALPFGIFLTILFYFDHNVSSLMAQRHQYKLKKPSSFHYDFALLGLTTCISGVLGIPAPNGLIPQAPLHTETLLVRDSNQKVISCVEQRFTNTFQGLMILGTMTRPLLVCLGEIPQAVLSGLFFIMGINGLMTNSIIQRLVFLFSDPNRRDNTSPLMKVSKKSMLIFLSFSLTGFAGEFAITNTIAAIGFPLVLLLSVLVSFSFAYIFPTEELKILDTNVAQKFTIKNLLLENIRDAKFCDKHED
Kind of series: curcumin spectrophotometric quantification of intracellular borate (efflux) in yeast lysates. The series is classed as cell-based. The conditions noted are these: 1 mM boric acid for 90 min.

Series [1] deals with the molecule itself. Kind of series: cross-linking; purified ScBor1p reconstituted into PC (16:0/18:1) proteoliposomes, 1:20 protein:lipid (w:w), detergent removed with Bio-beads; 0.15% glutaraldehyde, 5 min, room temperature; 20 mM Mes pH 6.5, 100 mM NaCl, 2% glycerol; control with 5 min pre-treatment with 2% SDS.

The text below walks through data of article PMC9959716, “Borate Transporters and SLC4 Bicarbonate Transporters Share Key Functional Properties” (Membranes, 2023).

For the molecule `OB(O)O` [borate], on ScBor1p, the “curcumin spectrophotometric quantification of intracellular borate (efflux) in y” value is listed as “Quantification of borate efflux activity in yeast cells expressing each indicated protein”.

B1: S. cerevisiae borate transporter Bor1p (natural protein, UniProt P53838 1-576, looked up)
chain: MSNESTRVTVSRGCTASDECAQALERTNDELDRESSVSESRSDEESHEKLSRRRFPTLGIGIWLDLKDRIPYYKSDWVDAFNYRVIPSIVDTYFNNLLPAIAFAQDMFDRTDNSYGVNEVLLSSAMAGIVFGVLGGQPLCIVGVTGPISIFNYTVYEIIKPLNTSYFGFMFWICMWSMIFHLVLAFTNAVCLLQYVTTFPCDIFGLFINVVYIQKGIQILTRQFSAKSGEKSVQDGFASVVVALVMTAFGLFFKLFHYYPLFSHRIRTFISDYSTALSVLFWSSFTHFGGYLHDVKFKKLPITKAFFPTSKVNRPQNTWLAYEPIPVKDVFIALPFGIFLTILFYFDHNVSSLMAQRHQYKLKKPSSFHYDFALLGLTTCISGVLGIPAPNGLIPQAPLHTETLLVRDSNQKVISCVEQRFTNTFQGLMILGTMTRPLLVCLGEIPQAVLSGLFFIMGINGLMTNSIIQRLVFLFSDPNRRDNTSPLMKVSKKSMLIFLSFSLTGFAGEFAITNTIAAIGFPLVLLLSVLVSFSFAYIFPTEELKILDTNVAQKFTIKNLLLENIRDAKFCDKHED
notes: Borate transporter Bor1p of S. cerevisiae, wild type; Membrane protein; Monomer-dimer equilibrium; dimer promoted by lipids; also called ScBor1p; source: reconstituted into PC or PG proteoliposomes
Take B1: the binding result in series [1] is listed as “binds”.
